Measured values taken from patent US20180327367A1, “MACROCYCLIC BROAD SPECTRUM ANTIBIOTICS” (priority 2015, published 2018).
Converted amounts (≈) assume the structure as drawn. Where two headings read alike, the source gives them in different places.

Assays:
Format in all cases: cell-based
[1] = system: Methicillin Resistant Staphylococcus aureus strain USA 300, NRS384; experiment: Minimum inhibitory concentration, broth micro-dilution (CLSI), S. aureus; conditions: 35° C., 22 hours; for MIC: Staphylococcus aureus, MRSA / NRS 384 / USA300, 22 h
Protocol: (§1) In vitro antimicrobial activity of each compound was determined by measuring minimal inhibitor concentrations (MICs) using the broth micro-dilution technique as approved by the Clinical and Laboratory Standards Institute (CLSI) (Methods for Dilution Antimicrobial Susceptibility Tests for Bacteria that Grow Aerobically; Approved Standard—Eighth Edition. CLSI document M07-A8. Wayne, Pa.: Clinical and Laboratory Standards; 2009). Antibacterial activity was measure against three strains of bacteria: a Methicillin Resistant Staphylococcus aureus strain USA 300, NRS384 (S. aureus); a strain of Escherichia coli MC4100 harboring the IMP4213 (E. coli IMP), which results in increased outer-membrane permeability (B Martin and Silhavy T. Imp/OstA is required for cell envelope biogenesis in Escherichia coli. (2002) Molecular Microbiology, 45(5), 1289-1302), and Escherichia coli ATCC 25922 (E. coli), a clinically relevant Gram-negative strain. Cells were inoculated onto plates of Trypyticase Soy Agar or Luria Agar respectively and grown at 35° C. for 20 hours. Inocula suspensions were prepared by scraping cells into 1 mL of testing media (cation adjusted Mueller Hinton Broth supplemented with 0.002% v/v Tween-80) and diluting to a final OD600 nm of 0.01.
(§2) Test compounds were prepared in DMSO at a concentration of 10 mg/mL. […] In protocol 2, the compound stocks were diluted into testing media at a concentration of 4 μg/mL and serial 2-fold dilutions were made in the same media, in 96-well U bottom microtiter dishes, for a total of 10 compound concentrations. In protocol 3, compound stocks were diluted into testing media at a concentration of 0.5 μg/mL, with serial 2-fold dilutions conducted as described above. […] Inocula suspensions were added to the 2-fold serial dilutions of test compounds to a final density of OD OD600 nm of 0.0005 and incubated at 35° C. for 22 hours.

[2] = system: Escherichia coli MC4100 harboring the IMP4213 (E. coli IMP); experiment: microbe, parasite or virus in culture; conditions: 35° C., 22 hours; for MIC: Escherichia coli, 22 h, read-out: MIC (μg/mL) E. coli IMP, E. coli MC4100 IMP4213, increased outer-membrane permeability
Protocol: as §1, §2

[3] = system: Escherichia coli ATCC 25922; experiment: Minimum inhibitory concentration, broth micro-dilution (CLSI), E. coli; conditions: 35° C., 22 hours; for MIC: Escherichia coli, ATCC25922, 22 h
Protocol: Cells were inoculated onto plates of Trypyticase Soy Agar or Luria Agar respectively and grown at 35° C. for 20 hours. Inocula suspensions were prepared by scraping cells into 1 mL of testing media (cation adjusted Mueller Hinton Broth supplemented with 0.002% v/v Tween-80) and diluting to a final OD600 nm of 0.01.
as §2

[4] = MRSA USA 300 NRS384, read-out: MIC (μg/mL) S. aureus
[5] = E. coli ATCC 25922, read-out: MIC (μg/mL) E. coli
[6] = read-out: MIC (μg/mL) S. aureus, MRSA USA 300 NRS384
[7] = read-out: MIC (μg/mL) E. coli, E. coli ATCC 25922

Question: For `C[C@@H]1NC(=O)[C@@H](N(C)C(=O)[C@H](CCCCN)NC(=O)c2ccc(-c3ccc(Cl)cc3)cc2)c2ccc(O)c(c2)-c2cc(ccc2O)C[C@@H](C(=O)N[C@H](C#N)CO)NC1=O` [Compound 418], which MIC [1, 4] is on record?
Answer: 4 µg/mL (≈ 4.85 µM)

Question: What about the MIC [2] of the same compound?
Answer: > 4 µg/mL

Question: What about the MIC [3, 5] of the same compound?
Answer: > 64 µg/mL

Question: Which results are given for `Cc1cc(C2CC2c2ccccc2)ccc1C(=O)N[C@@H](CCN)C(=O)N(C)[C@@H]1C(=O)N[C@@H](C)C(=O)N[C@H](C(=O)NCC#N)Cc2ccc(OCCN)c(c2)-c2cc1ccc2OCCN` (mixture of isomers) [Compound 439]?
Answer: MIC (μg/mL) S. aureus ([1]; MRSA USA 300 NRS384): 0.047 µg/mL; MIC (μg/mL) E. coli IMP ([2]; E. coli MC4100 IMP4213, increased outer-membrane permeability): 0.0078 µg/mL; MIC (μg/mL) E. coli ([3]; E. coli ATCC 25922): 0.5 µg/mL

Question: Which MIC [1, 4] does the source give for `Cc1cc(-c2ccc(CC(C)C)cc2)ncc1C(=O)N[C@@H](CCN)C(=O)N(C)[C@@H]1C(=O)N[C@@H](C)C(=O)N[C@H](C(=O)NCC#N)Cc2ccc(OCCN)c(c2)-c2cc1ccc2OCCN` [Compound 167] here?
Answer: 0.023 µg/mL (≈ 0.0259 µM)

Question: What about the MIC [2] of the same compound?
Answer: 0.0049 µg/mL (≈ 0.00551 µM)

Question: And the MIC [3, 5]?
Answer: 0.14 µg/mL (≈ 0.157 µM)

Question: What does the source list for `CCCCCCCOc1ccc(C(=O)N[C@@H](CCN)C(=O)N(C)[C@@H]2C(=O)N[C@@H](C)C(=O)N[C@H](C(=O)NCC#N)Cc3ccc(OCCN)c(c3)-c3cc2ccc3OCCN)c(C)c1C` [Compound 294]?
Answer: MIC [1, 4]: 0.063 µg/mL (≈ 0.0713 µM); MIC [2]: 0.0078 µg/mL (≈ 0.00882 µM); MIC [3, 5]: 0.25 µg/mL (≈ 0.283 µM)

Question: Which results are given for `CCCCc1ccc(C(=O)N[C@@H](CCO)C(=O)N[C@@H](CCN)C(=O)N(C)[C@@H]2C(=O)N[C@@H](C)C(=O)N[C@H](C(=O)NCC#N)Cc3ccc(OCCN)c(c3)-c3cc2ccc3OCCN)c(C)c1` [Compound 382]?
Answer: MIC [1, 6]: 0.5 µg/mL (≈ 0.548 µM); MIC [2]: 0.5 µg/mL (≈ 0.548 µM); MIC [3, 7]: 64 µg/mL (≈ 70.1 µM)

Question: How did the MIC [1, 6] turn out when `CCCCc1ccc(C(=O)N[C@@H](CCN)C(=O)N[C@@H](C)C(=O)N(C)[C@@H]2C(=O)N[C@@H](C)C(=O)N[C@H](C(=O)NCC#N)Cc3ccc(OCCN)c(c3)-c3cc2ccc3OCCN)c(C)c1` [Compound 380] was run?
Answer: > 4 µg/mL

Question: What about the MIC [2] of the same compound?
Answer: 4 µg/mL (≈ 4.53 µM)

Question: And the MIC [3, 7]?
Answer: 64 µg/mL (≈ 72.5 µM)

Question: Which MIC [1, 4] does the source give for `CCCCCc1ccc(C(=O)N[C@@H](CCN)CC(=O)N(C)[C@@H]2C(=O)N[C@@H](C)C(=O)N[C@H](C(=O)NCC#N)Cc3ccc(OCCN)c(c3)-c3cc2ccc3OCCN)c(C)c1` [Compound 512] here?
Answer: 0.38 µg/mL (≈ 0.452 µM)

Question: What about the MIC [2] of the same compound?
Answer: 0.5 µg/mL (≈ 0.595 µM)

Question: What about the MIC [3, 5] of the same compound?
Answer: 64 µg/mL (≈ 76.2 µM)

Question: With `Cc1nc(-c2ccc(CC(C)C)cc2)ccc1C(=O)N[C@@H](CCN)C(=O)N(C)[C@@H]1C(=O)N[C@@H](C)C(=O)N[C@H](C(=O)NCC#N)Cc2ccc(O)c(c2)-c2cc1ccc2OCCN` [Compound 502] as the compound, how does the MIC [1, 4] read?
Answer: 0.063 µg/mL (≈ 0.0745 µM)

Question: What about the MIC [2] of the same compound?
Answer: 0.003 µg/mL (≈ 0.00355 µM)

Question: And the MIC [3, 5]?
Answer: 0.25 µg/mL (≈ 0.296 µM)

Question: How did the MIC [1, 4] turn out when `CCCCCCCCCC(=O)N[C@@H](C)C(=O)NCCC(=O)N[C@@H](CCN)C(=O)N(C)[C@@H]1C(=O)N[C@@H](C)C(=O)N[C@H](C(=O)NCC#N)Cc2ccc(OCCN)c(c2)-c2cc1ccc2OCCN` [Compound 364] was run?
Answer: 0.38 µg/mL (≈ 0.407 µM)

Question: And the MIC [2]?
Answer: 0.75 µg/mL (≈ 0.803 µM)

Question: What about the MIC [3, 5] of the same compound?
Answer: 48 µg/mL (≈ 51.4 µM)

Question: What does the source list for `CCCCCCCCc1ccc(C(=O)N[C@@H](CCN)C(=O)N(C)[C@@H]2C(=O)N[C@@H](C)C(=O)N[C@H](C(=O)NCC#N)Cc3ccc(OCCN)c(c3)-c3cc2ccc3OCCN)c(OCC(=O)O)c1` [Compound 409]?
Answer: MIC [1, 4]: 0.25 µg/mL (≈ 0.269 µM); MIC [2]: < 0.0039 µg/mL; MIC [3, 5]: 0.5 µg/mL (≈ 0.539 µM)

Question: With `CCCCCCCCc1ccc2c(=O)n([C@@H](CCN)C(=O)N(C)[C@@H]3C(=O)N[C@@H](C)C(=O)N[C@H](C(=O)NCC#N)Cc4ccc(OCCN)c(c4)-c4cc3ccc4OCCN)cnc2c1` [Compound 486] as the compound, how does the MIC [1, 6] read?
Answer: 0.094 µg/mL (≈ 0.107 µM)

Question: What about the MIC [2] of the same compound?
Answer: 0.13 µg/mL (≈ 0.148 µM)

Question: And the MIC [3, 7]?
Answer: 3 µg/mL (≈ 3.41 µM)

Question: With `CCCCCCc1ccc(-c2ncc(C(=O)N[C@@H](CCN)C(=O)N(C)[C@@H]3C(=O)N[C@@H](C)C(=O)N[C@H](C(=O)NCC#N)Cc4ccc(O)c(c4)-c4cc3ccc4OCCN)c(C)n2)cc1` [Compound 504] as the compound, how does the MIC [1, 4] read?
Answer: 0.094 µg/mL (≈ 0.107 µM)

Question: What about the MIC [2] of the same compound?
Answer: 0.016 µg/mL (≈ 0.0183 µM)

Question: And the MIC [3, 5]?
Answer: 0.25 µg/mL (≈ 0.286 µM)

Question: Which MIC [1, 4] does the source give for `C[C@@H]1NC(=O)[C@@H](N(C)C(=O)[C@H](CCN)NC(=O)c2ccc3c(c2)CCCC3)c2ccc(OCCN)c(c2)-c2cc(ccc2OCCN)C[C@@H](C(=O)NCC#N)NC1=O` [Compound 119] here?
Answer: 1 µg/mL (≈ 1.26 µM)

Question: And the MIC [2]?
Answer: 0.25 µg/mL (≈ 0.314 µM)

Question: And the MIC [3, 5]?
Answer: 16 µg/mL (≈ 20.1 µM)
